Experimental data as given in patent US10758549B2, “Compositions of obeticholic acid and methods of use” (Intercept Pharmaceuticals, Inc., priority 2015, dated 2020).
Where “and” joins values, the source holds several entries; their conditions need not be identical. Equal entries are not always repeated. One block for each compound: values may come before it.

Tests used:
[1] = biological target: T1, farnesoid X receptor (FXR) (Homo sapiens, UniProt Q96RI1); details: in vitro / on FXR; cited from earlier work
T1 sequence (Q96RI1 1-486): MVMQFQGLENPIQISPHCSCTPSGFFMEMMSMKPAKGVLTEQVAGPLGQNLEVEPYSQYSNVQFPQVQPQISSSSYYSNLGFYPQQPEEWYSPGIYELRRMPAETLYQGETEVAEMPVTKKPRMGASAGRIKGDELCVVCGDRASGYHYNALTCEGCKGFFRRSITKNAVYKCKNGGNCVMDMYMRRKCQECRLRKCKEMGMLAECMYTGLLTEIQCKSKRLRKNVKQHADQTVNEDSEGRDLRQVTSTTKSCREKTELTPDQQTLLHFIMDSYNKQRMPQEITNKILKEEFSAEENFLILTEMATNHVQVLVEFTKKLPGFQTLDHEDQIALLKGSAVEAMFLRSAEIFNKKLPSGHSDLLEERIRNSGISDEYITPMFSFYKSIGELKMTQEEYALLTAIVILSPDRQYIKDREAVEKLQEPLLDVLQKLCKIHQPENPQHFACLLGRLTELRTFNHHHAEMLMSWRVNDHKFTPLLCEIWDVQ

[2] = Particle size distribution, dry dispersion laser diffraction (Sympatec); type: physicochemical; details: for D10 / D25 / D50 / D75 / D90 / D95: in µm (unit assumed); for PSD X10 / PSD X50 / PSD X90: spiral jet mill, JetPharma
Description: Particle size of agglomeration was identified as playing a primary role in the release rate and dissolution and variability in the blend uniformity and content uniformity of the tablet formulations. In order to obtain an appropriate particle size distribution (PSD), milling of obeticholic acid was investigated. The particle size of the formulations was reduced using comilling and jet milling to improve its dissolution release profile. Particle size analysis was performed using a dry dispersion method and analyzed by laser diffraction using Sympatec equipment.
Particle size distribution was assessed using a dry dispersion method analyzed by laser diffraction using a Sympatec Laser Helos/KF-Magic F71000 with Rodos Dispersing Unit. The OCA sample (0.5 g sample) was tested as a dry powder. The parameters for the validated particle size analysis method are described below:
Apparatus: Sympatec Laser Helos/KF-Magic F71000 with Rodos Dispersing Unit, Vibri sampling unit with Sniffer rotation, Nilfisk exhaustion or equivalent.
Dispersing principle: Dry.

Surface area by BET = type: physicochemical
Description: The impact of jet-milling on API particle size and surface area is detailed in Table 4-1 and Table 4-2, respectively. Surface area was tested per a BET (Brunauer, Emmett, and Teller theory). The BET method for analyzing surface area is based on adsorption of gas on a surface. The amount of gas adsorbed at a given pressure allows a determination of the surface area.

[3] = Before jet-milling (unmicronized)

Structure (SMILES): CCC1C(O)C2C3CCC(C(C)CCC(=O)O)C3(C)CCC2C2(C)CCC(OC3OC(C(=O)O)C(O)C(O)C3O)CC12 (stereo not drawn) [3-glucuronide]
pharmacological activity relative to OCA (parent drug) [1]: minimal pharmacologic activity

D10 [2]: 5.7
D25 [2]: 122.9
D50 [2]: 217.5
D75 [2]: 283.0
D90 [2]: 335.1
D95 [2]: 360.3
Structure (SMILES): CC[C@H]1[C@@H](O)[C@@H]2[C@H](CC[C@]3(C)[C@@H]([C@H](C)CCC(=O)O)CC[C@@H]23)[C@@]2(C)CC[C@@H](O)C[C@@H]12 [Comilled with 0.46 mm screen]

D10 [2]: 5.5 and 4.1
D25 [2]: 106.6 and 102.2
D50 [2]: 223.2 and 263.1
D75 [2]: 320.8 and 351.0
D90 [2]: 393.8 and 410.9
D95 [2]: 429.8 and 447.9
Structure (SMILES): CC[C@H]1[C@@H](O)[C@@H]2[C@H](CC[C@]3(C)[C@@H]([C@H](C)CCC(=O)O)CC[C@@H]23)[C@@]2(C)CC[C@@H](O)C[C@@H]12 [Comilled with 0.61 mm screen]

D10 [2]: 7.9
D25 [2]: 73.9
D50 [2]: 239.3
D75 [2]: 340.8
D90 [2]: 412.0
D95 [2]: 452.7
Structure (SMILES): CC[C@H]1[C@@H](O)[C@@H]2[C@H](CC[C@]3(C)[C@@H]([C@H](C)CCC(=O)O)CC[C@@H]23)[C@@]2(C)CC[C@@H](O)C[C@@H]12 [Comilled with 1.14 mm screen]

PSD X10 [2]: X10: 1 μm
PSD X50 [2]: X50: 5 μm
PSD X90 [2]: X90: 20 μm
Structure (SMILES): CC[C@H]1[C@@H](O)[C@@H]2[C@H](CC[C@]3(C)[C@@H]([C@H](C)CCC(=O)O)CC[C@@H]23)[C@@]2(C)CC[C@@H](O)C[C@@H]12 [JP1307001]

PSD X10 [2]: X10: 1 μm
PSD X50 [2]: X50: 5 μm
PSD X90 [2]: X90: 19 μm
Structure (SMILES): CC[C@H]1[C@@H](O)[C@@H]2[C@H](CC[C@]3(C)[C@@H]([C@H](C)CCC(=O)O)CC[C@@H]23)[C@@]2(C)CC[C@@H](O)C[C@@H]12 [JP1408001]

PSD X10 [2]: X10: 1 μm
PSD X50 [2]: X50: 4 μm
PSD X90 [2]: X90: 14 μm
Structure (SMILES): CC[C@H]1[C@@H](O)[C@@H]2[C@H](CC[C@]3(C)[C@@H]([C@H](C)CCC(=O)O)CC[C@@H]23)[C@@]2(C)CC[C@@H](O)C[C@@H]12 [JP1408002]

PSD X10 [2]: X10: 1 μm
PSD X50 [2]: X50: 4 μm
PSD X90 [2]: X90: 15 μm
Structure (SMILES): CC[C@H]1[C@@H](O)[C@@H]2[C@H](CC[C@]3(C)[C@@H]([C@H](C)CCC(=O)O)CC[C@@H]23)[C@@]2(C)CC[C@@H](O)C[C@@H]12 [JP1408003]

D16 [2]: 2.3 µm
D84 [2]: 57.2 µm
D99 [2]: 97.9 µm
D10 [2]: 1.7
D50 [2]: 10.9
D90 [2]: 69.3
Structure (SMILES): CC[C@H]1[C@@H](O)[C@@H]2[C@H](CC[C@]3(C)[C@@H]([C@H](C)CCC(=O)O)CC[C@@H]23)[C@@]2(C)CC[C@@H](O)C[C@@H]12 [Jet mill, classifier speed 2000 rpm]

D16 [2]: 1.6 µm
D84 [2]: 17 µm
D99 [2]: 36 µm
D10 [2]: 1.3
D50 [2]: 3.8
D90 [2]: 21.7
Structure (SMILES): CC[C@H]1[C@@H](O)[C@@H]2[C@H](CC[C@]3(C)[C@@H]([C@H](C)CCC(=O)O)CC[C@@H]23)[C@@]2(C)CC[C@@H](O)C[C@@H]12 [Jet mill, classifier speed 4000 rpm]

D16 [2]: 1.7 µm
D84 [2]: 15.2 µm
D99 [2]: 55.8 µm
D10 [2]: 1.3
D50 [2]: 4.2
D90 [2]: 18.9
Structure (SMILES): CC[C@H]1[C@@H](O)[C@@H]2[C@H](CC[C@]3(C)[C@@H]([C@H](C)CCC(=O)O)CC[C@@H]23)[C@@]2(C)CC[C@@H](O)C[C@@H]12 [Jet mill, classifier speed 5000 rpm]

D16 [2]: 1.4 µm
D84 [2]: 4.7 µm
D99 [2]: 9 µm
D10 [2]: 1.1
D50 [2]: 2.7
D90 [2]: 5.6
Structure (SMILES): CC[C@H]1[C@@H](O)[C@@H]2[C@H](CC[C@]3(C)[C@@H]([C@H](C)CCC(=O)O)CC[C@@H]23)[C@@]2(C)CC[C@@H](O)C[C@@H]12 [Jet mill, classifier speed 10000 rpm]

Dv (10) ([2]; After jet-milling (micronized)): 0.7 µm
Dv (50) ([2]; After jet-milling (micronized)): 6.1 µm
Dv (90) ([2]; After jet-milling (micronized)): 18.8 µm
Dv (99) ([2]; After jet-milling (micronized)): 30.8 µm
Dv (10) [2, 3]: 2.6 µm
Dv (50) [2, 3]: 26 µm
Dv (90) [2, 3]: 162 µm
Dv (99) [2, 3]: 419 µm
Surface Area (m^2/kg) (Surface area by BET; After jet-milling (micronized)): 3178 m^2/kg
Surface Area (m^2/kg) (Surface area by BET; [3]): 1557 m^2/kg
Structure (SMILES): CC[C@H]1[C@@H](O)[C@@H]2[C@H](CC[C@]3(C)[C@@H]([C@H](C)CCC(=O)O)CC[C@@H]23)[C@@]2(C)CC[C@@H](O)C[C@@H]12 [OCA Example # 1]

Dv (10) ([2]; After jet-milling (micronized)): 0.6 µm
Dv (50) ([2]; After jet-milling (micronized)): 4.4 µm
Dv (90) ([2]; After jet-milling (micronized)): 17.8 µm
Dv (99) ([2]; After jet-milling (micronized)): 34.6 µm
Dv (10) [2, 3]: 1.8 µm
Dv (50) [2, 3]: 19 µm
Dv (90) [2, 3]: 231 µm
Dv (99) [2, 3]: 509 µm
Surface Area (m^2/kg) (Surface area by BET; After jet-milling (micronized)): 3848 m^2/kg
Surface Area (m^2/kg) (Surface area by BET; [3]): 1854 m^2/kg
Structure (SMILES): CC[C@H]1[C@@H](O)[C@@H]2[C@H](CC[C@]3(C)[C@@H]([C@H](C)CCC(=O)O)CC[C@@H]23)[C@@]2(C)CC[C@@H](O)C[C@@H]12 [OCA Example # 2]

Dv (10) ([2]; After jet-milling (micronized)): 0.7 µm
Dv (50) ([2]; After jet-milling (micronized)): 4.9 µm
Dv (90) ([2]; After jet-milling (micronized)): 14.1 µm
Dv (99) ([2]; After jet-milling (micronized)): 25.9 µm
Dv (10) [2, 3]: 5.3 µm
Dv (50) [2, 3]: 39 µm
Dv (90) [2, 3]: 221 µm
Dv (99) [2, 3]: 513 µm
Surface Area (m^2/kg) (Surface area by BET; After jet-milling (micronized)): 3412 m^2/kg
Surface Area (m^2/kg) (Surface area by BET; [3]): 809 m^2/kg
Structure (SMILES): CC[C@H]1[C@@H](O)[C@@H]2[C@H](CC[C@]3(C)[C@@H]([C@H](C)CCC(=O)O)CC[C@@H]23)[C@@]2(C)CC[C@@H](O)C[C@@H]12 [OCA Example # 3]

D10 [2]: 4.8 and 3.3
D50 [2]: 218.6 and 167.7
D75 [2]: 335.7 and 273.7
D90 [2]: 427.6 and 355.6
D95 [2]: 472.6 and 398.2
D10 ([2]; listed as Unmilled API): 4.8
D50 ([2]; listed as Unmilled API): 218.6
D90 ([2]; listed as Unmilled API): 427.6
Structure (SMILES): CC[C@H]1[C@@H](O)[C@@H]2[C@H](CC[C@]3(C)[C@@H]([C@H](C)CCC(=O)O)CC[C@@H]23)[C@@]2(C)CC[C@@H](O)C[C@@H]12 [Unmilled API (no comil)]
